Assay results reported in ChEMBL document CHEMBL1138215, “Aminodeoxychorismate synthase inhibitors from one-bead one-compound combinatorial libraries: "staged" inhibitor design” (J Med Chem, 2006).
Active and inactive are the calls of the source. The rule behind the calls is not given here.

These compounds were tested against 4-amino-4-deoxychorismate synthase (Escherichia coli) (assay: Inhibition of ADCS).

Compound	Ki
O=C(O)COc1ccc(C(=O)O)cc1	100 mM
O=C(O)CCNc1ccc(C(=O)O)cc1	13 mM
Cc1ccc(C(=O)N[C@@H](CCCCNC(=O)c2cccc(OCC(=O)O)c2)C(=O)N[C@@H](Cc2cccc(Cl)c2)C(=O)NCCOCCOCCNC(=O)CCC(=O)N2CCN(CC(N)=O)CC2)c([N+](=O)[O-])c1O	1.5 mM
CC(=O)N[C@@H](CCCCNCc1cccc(OCC(=O)O)c1)C(N)=O	38 mM
NC(=O)C1(NC(=O)[C@H](CCCCNC(=O)c2cccc(OCC(=O)O)c2)NC(=O)c2ncccc2C(=O)c2ccccc2)CCCCC1	3.9 mM
CC(C(=O)N[C@@H](CCCCNC(=O)c1cccc(OCC(=O)O)c1)C(=O)NCCc1cccc2c1oc1c(CCC(N)=O)cccc12)c1ccc([N+](=O)[O-])cc1 (some centres undefined)	0.36 mM
NC(=O)c1cccc(OCC(=O)O)c1	32 mM
Cc1ccc(C(=O)N[C@@H](CCCCNC(=O)c2cccc(OCC(=O)O)c2)C(=O)N[C@@H](Cc2ccc(C#N)cc2)C(N)=O)c([N+](=O)[O-])c1O	0.54 mM
CC(C(=O)N[C@@H](CCCCNC(=O)c1cccc(OCC(=O)O)c1)C(=O)NCCc1cccc2c1oc1c(CCC(=O)NCCOCCOCCNC(=O)CCC(=O)N3CCN(CC(N)=O)CC3)cccc12)c1ccc([N+](=O)[O-])cc1 (some centres undefined)	1.4 mM
Cc1ccc(C(=O)N[C@@H](CCCCNC(=O)c2cccc(OCC(=O)O)c2)C(=O)N[C@@H](Cc2cccc(Cl)c2)C(N)=O)c([N+](=O)[O-])c1O	0.77 mM
NC(=O)C1(NC(=O)[C@H](CCCCNC(=O)c2cccc(OCC(=O)O)c2)NC(=O)c2ccc(Oc3ccccc3)cc2)CCS(=O)(=O)CC1	0.71 mM
O=C(O)c1ccc(=O)oc1	2 mM
O=C(O)COc1cccc(C(=O)O)c1	37 mM
COc1cccc(OC)c1C(=O)N[C@@H](CCCCNC(=O)c1cccc(OCC(=O)O)c1)C(=O)N[C@@H](Cc1ccc([N+](=O)[O-])c(O)c1)C(N)=O	0.72 mM
O=C(O)CNc1cc(C(=O)O)ccc1F	3 mM
CC(=O)N[C@@H](CCCCNC(=O)c1cccc(OCC(=O)O)c1)C(N)=O	31 mM
Cc1ccc(C(=O)N[C@@H](CCCCNC(=O)c2cccc(OCC(=O)O)c2)C(=O)NCC(C(N)=O)C2CCCCC2)c([N+](=O)[O-])c1O (some centres undefined)	1.7 mM
NC(=O)C1(NC(=O)[C@H](CCCCNC(=O)c2cccc(OCC(=O)O)c2)NC(=O)c2cc(O)cc(O)c2)CCCCC1	1.1 mM

What follows are compounds tested on 4-amino-4-deoxychorismate synthase ADCS/PabB (Escherichia coli) (assay: Inhibition of ADCS).

Compound	Activity
O=C(O)CCC1=CC(CCC(=O)O)CCC1=O (centres undefined)	inactive
